Test results: US20050032757A1, “Nutritional supplements” (priority 2003, published 2005)
Structures can show the parent of a compound that is named as a salt.

Experiment: Evaluation of composition stability of PSE and fish oil mixtures with test reagents
Format: physicochemical
Conditions: fish oil 2 g
Experimental: Varying amounts of PSE and fish oil were mixed in a 50 ml beaker. The mixture was warmed to 35-40° C. A variety of test reagents, including surfactants and small carboxylic acid esters, were then examined for their ability to stabilize the mixture at room temperature (RT), 40° C., and 50° C.

[1] = Phytosterol 4 g, test reagent 0.10 g
[2] = Phytosterol 4 g, test reagent 0.20 g
[3] = Phytosterol 4 g, test reagent 0.30 g
[4] = Phytosterol 4 g, test reagent 0.40 g
[5] = Phytosterol 2 g, test reagent 0.10 g

| Compound | Stability results [1] | Stability results [2] | Stability results [3] | Stability results (Phytosterol 2 g, test reagent 0.30 g) | Stability results [4] | Stability results [5] |
| --- | --- | --- | --- | --- | --- | --- |
| O=C(O)CC(O)(CC(=O)O)C(=O)O [Citric Acid] | insoluble | insoluble | insoluble | – | – | – |
| CCOC(=O)[C@H](O)[C@@H](O)C(=O)OCC [Diethyl L-tartrate] | stable (stable (did not separate for 24 hours)) | stable (stable (did not separate for 24 hours)) | stable (stable (did not separate for 24 hours)) | – | – | – |
| CCOC(=O)/C=C\C(=O)OCC [Diethyl Maleate] | stable (stable (did not separate for 24 hours)) | stable (stable (did not separate for 24 hours)) | insoluble | – | – | – |
| OCC(O)CO [Glycerin] | insoluble | – | – | – | – | – |
| CCOC(=O)CC(O)(CC(=O)OCC)C(=O)OCC [Triethyl Citrate] | stable (stable (did not separate for 24 hours)) | stable (stable (did not separate for 24 hours)) | stable (stable (did not separate for 24 hours)) | unstable (unstable (separated quickly, usually less than 1-2 hr)) | stable (stable (did not separate for 24 hours)) | – |
| Polysorbate 20 | unstable (unstable (separated quickly, usually less than 1-2 hr)) | unstable (unstable (separated quickly, usually less than 1-2 hr)) | – | – | – | – |
| Polysorbate 60 | – | unstable (unstable (separated quickly, usually less than 1-2 hr)) | unstable (unstable (separated quickly, usually less than 1-2 hr)) | – | unstable (unstable (separated quickly, usually less than 1-2 hr)) | unstable (unstable (separated quickly, usually less than 1-2 hr)) |
| Polysorbate 80 | – | unstable (unstable (separated quickly, usually less than 1-2 hr)) | – | – | – | unstable (unstable (separated quickly, usually less than 1-2 hr)) |
| Sodium Caproyl Lactylate | – | unstable (unstable (separated quickly, usually less than 1-2 hr)) | – | – | – | – |
| Sodium Isostearyl Lactylate | unstable (unstable (separated quickly, usually less than 1-2 hr)) | – | – | – | – | – |
| Sorbitan Oleate | unstable (unstable (separated quickly, usually less than 1-2 hr)) | unstable (unstable (separated quickly, usually less than 1-2 hr)) | unstable (unstable (separated quickly, usually less than 1-2 hr)) | – | unstable (unstable (separated quickly, usually less than 1-2 hr)) | – |
